Values belong to the compound of their own block, whether it stands above or below them.
What was measured:
[1] = test system: T. maritima lysine riboswitch; assay: equilibrium dialysis, T. maritima lysine riboswitch; assay type: binding, Thermotoga maritima
Description: (§1) The assay was performed as described in Sudarsan, et al., An mRNA structure in bacteria that controls gene expression by binding lysine, Genes Dev. 17:2688-2697 (2003) using 5 kDa DispoEquilibrium DIALYZERS (Harvard Apparatus). In brief, […] RNA (from 0.001 to 20 mM) in the in-line probing buffer was placed in chamber A of the dialyser and equilibrated for 16 h at room temperature against chamber B containing […] 3H-labelled lysine (1 nM; 6,000 c.p.m.) in the same buffer. The amount of bound lysine was calculated by subtracting the radioactivity counts of chamber B from chamber A. The data were fitted using a bimolecular equilibrium equation, assuming that the free lysine concentration is negligible.

[2] = test system: B. subtilis lysine riboswitch; assay: equilibrium dialysis, B. subtilis lysine riboswitch; assay type: binding; conditions: Bacillus subtilis riboswitch
Description: as §1

[3] = test system: 265-nucleotide full-length T. maritima lysine riboswitch; assay: primer extension assay (reverse transcriptase pausing at A169); assay type: biochemical, Thermotoga maritima
From the text: FIG. 39. Interactions of lysine and its analogs with the T. maritima lysine riboswitch studied by primer extension. a and b, Representative gels of riboswitch titration by lysine (a) and AEC (b). Reverse transcriptase (RT) pauses three nucleotides prior to the j unction at A169 in the context of the full-length riboswitch if the riboswitch-binding ligand is present in the reaction mixture. c, Representative titration experiments used for calculations of the ligand concentration (FIG. 4c) at which RT pausing is half-maximally attained. The experimental data points for lysine and AEC are from panels (a) and (b). The data were fitted to equation (1), which is based on the equation describing a bimolecular equilibrium, by the nonlinear least squares analysis. In the equation
θ is the fraction of RT pausing, No and Lo are RNA and ligand concentrations, respectively, and P50 is the apparent ligand concentration at which RT pausing is half-maximally attained. The P50 value for the lysine-induced RT pausing 5.50±0.53/−1M (mean±s.d.) (n=2) is similar to the Kd value 4.03±0.34/−1M (mean±s.d.) (n=2) determined by the equilibrium dialysis assay. The relative differences between the P50 values for lysine and its analogs are in overall agreement with the relative differences obtained from the Kd values for lysine and its analogs determined for the B. subtilis lysine riboswitch in ref. 5.
Primer extension experiments were performed using 265-nucleotide full-length riboswitch. The 32P-labelled 13-mer DNA oligonucleotide (100,000 c.p.m.), complementary to nucleotides 253-265 of RNA, was annealed to the 39 end of RNA (final RNA concentration […] in the assay). Primer extension was conducted in […] volume with 40 U of moloney murine leukaemia virus reverse transcriptase in 50 mM Na-HEPES, pH 7.9, 2 mM MgCl2, and variable concentrations of NaCl and KCl (FIG. 4), with or without a tenfold excess of lysine over RNA. After 30 min incubation at 37° C., the reactions were precipitated with ethanol, dissolved in loading buffer and analysed by 10% PAGE. Efficiency of lysine-induced pausing of reverse transcriptase at nucleotide A169 was quantified using FLA-7000 PhosphorImager and Image Gauge software (Fujifilm). Band intensities from independent experiments were averaged after gel-loading correction, background subtraction and normalization. The primer extension assay in the presence of lysine analogues was performed in 50 mM Na-HEPES, pH 7.9, 2 mM MgCl2, 50 mM KCl, and lysine analogues in the range 1028-1022 M. The data were fitted using a bimolecular equilibrium equation (Supplementary FIG. 12) and the resulting P50 values are reported in FIG. 4c. Reverse transcriptase sequencing reactions were run in parallel.

[4] = test system: 143-nucleotide B. subtilis FMN riboswitch; assay: fluorescent binding assay with the 143-nucleotide B. subtilis FMN riboswitch; conditions: Bacillus subtilis riboswitch
Description: FIG. 9. The metabolite-sensing domain of the B. subtilis FMN riboswitch. a, The sequence of the 143-nucleotide fragment of B. subtilis riboswitch 5 is presented as a secondary structure schematic, which is based on the consensus secondary structure of the FMN riboswitches with small corrections from the three-dimensional structure of the F nucleatum riboswitch. b, Binding of FMN and its analogs to the 143-nucleotide B. subtilis FMN riboswitch. All measurements were performed using fluorescent assay.

[5] = test system: 112-nucleotide F. nucleatum FMN riboswitch; assay: fluorescent binding assay with the 112-nucleotide F. nucleatum FMN riboswitch; conditions: for Kd: read-out: dissociation constants (mean s.d.), 112-nucleotide riboswitch, 2 mM MgCl2 and 100 mM KCl
[6] = biological target: 220-nucleotide full-length F. nucleatum FMN riboswitch; assay: fluorescent binding assay with the 220-nucleotide full-length F. nucleatum impX FMN riboswitch; parameters: species or system Fusobacterium nucleatum; conditions: 220-nucleotide RNA; read-out: Kd (mean±s.d.)
[7] = test system: mRNA that contains the FMN riboswitch; conditions: used at a 17-fold higher concentration than FMN; cited from earlier work

SMILES: NCCCC[C@H](N)C(=O)O [lysine, L-lysine]
lysine binding affinity when K+ was omitted or replaced by Na+ [1]: significantly decreased | lysine binding affinity when K+ was omitted or replaced by Na+ [2]: significantly decreased | decrease of reverse transcriptase pause after replacement of K+ by Na+ ([3]; in the presence of lysine): 33 fold

SMILES: N=C(N)NCCCC[C@H](N)C(=O)O [L-homoarginine]
binding to the riboswitch relative to lysine in primer extension [3]: weaker interactions than lysine

SMILES: Cc1cc2nc3c(=O)[nH]c(=O)nc-3n(C)c2cc1C [lumiflavin]
effect of additional removal of the ribityl moiety on binding affinity ([5]; compared with riboflavin): reduces binding affinity to only a very small extent | Kd [5]: 59 µM

SMILES: Cc1cc2nc3c(=O)[nH]c(=O)nc-3n(C[C@H](O)[C@H](O)[C@H](O)COP(=O)(O)OP(=O)(O)OC[C@H]3O[C@@H](n4cnc5c(N)ncnc54)[C@H](O)[C@@H]3O)c2cc1C [FAD, flavin adenine dinucleotide]
inhibition of transcription in vitro [7]: inhibited

Results, then the compound that gave them:

decrease of binding affinity compared with binding of FMN [4]: about 1,000 fold | decrease of binding affinity compared with binding of FMN ([5]; F. nucleatum riboswitch): about 1,000 fold | Kd [5]: 39.8 µM
SMILES: Cc1cc2nc3c(=O)[nH]c(=O)nc-3n(C[C@H](O)[C@H](O)[C@H](O)CO)c2cc1C [riboflavin]

Kd [6]: 0.134 ± 0.0139 µM | binding to the riboswitch in the presence of cobalt hexamine ([5]; cobalt hexamine in place of Mg2+): equally well | reduction of binding affinity in the presence of iridium hexamine ([5]; iridium hexamine in place of Mg2+): about 15 fold
SMILES: Cc1cc2nc3c(=O)[nH]c(=O)nc-3n(C[C@H](O)[C@H](O)[C@H](O)COP(=O)(O)O)c2cc1C [FMN, flavin mononucleotide]

binding to the riboswitch relative to lysine in primer extension [3]: weaker interactions than lysine
SMILES: CC(=N)NCCCC[C@H](N)C(=O)O [N6-1-iminoethyl-L-lysine]

binding to the riboswitch relative to lysine in primer extension [3]: weaker binding
SMILES: NCCOC[C@H](N)C(=O)O [L-4-oxalysine]

binding to the riboswitch relative to lysine in primer extension [3]: weaker binding
SMILES: NCCSC[C@H](N)C(=O)O [AEC, S-(2-aminoethyl)-L-cysteine]

Source: patent publication US20110237549A1, “MODULATORS OF RNA RIBOSWITCHES” (MEMORIAL SLOAN KETTERING CANCER CENTER, priority 2008, published 2011)
